Reference: paper PMC7399337, “Biological Properties and Absolute Configuration of Flavanones From Calceolaria thyrsiflora Graham” (Frontiers in Pharmacology, 2020)
Converted amounts (≈) assume the structure as drawn.

Columns and labels:
A. tumefaciens = assay: Antibacterial MIC, broth microdilution, phytopathogens; format: cell-based; conditions: Agrobacterium tumefaciens; GN A. tumefaciens; 24 h; tested 12.5 to 1,600 µg/ml; read-out: Minimum inhibitory concentration (MIC)
Experimental: (§1) The minimum inhibitory concentrations (MIC) were determined using the broth microdilution method ([Díaz et al., 2018]). Two-fold serial dilutions were added to the wells of sterile 96-well plates containing inoculated BBL™ Mueller Hinton II Broth medium suspensions of bacterial cells (1.0 x10^5 UFC/ml) of Agrobacterium tumefaciens and Bacillus subtilis. The final concentrations ranged from 12.5 to 1,600 µg/ml. Ethanol (1%) was used as the negative control and chloramphenicol (CALBIOCHEM; U.S. and Canada) was used as the positive control against both bacteria. MICs were determined according to the OD600 obtained in a Thermo Scientific Multiskan GO 96-well plate photometer. […] Assays were done in triplicate.

B. subtilis = assay: as above; format: cell-based; conditions: Bacillus subtilis; GP B. subtilis; 24 h; tested 12.5 to 1,600 µg/ml; read-out: Minimum inhibitory concentration (MIC)
Experimental: as §1

MIC (A. tumefaciens): 12.5 µg/mL (≈ 38.7 µM) | MIC (B. subtilis): 12.5 µg/mL (≈ 38.7 µM)
Structure (SMILES): O=C(N[C@H](CO)[C@H](O)c1ccc([N+](=O)[O-])cc1)C(Cl)Cl [Chloramphenicol]
